In article PMC9944328 (Nature Communications, 2023):
Where two headings read alike, the source gives them in different places.

Experiments:
[1] = test system: SSTR2 mutants; test: Bystander BRET endosomal trafficking (β-arrestin 1-Nluc, FYVE-mVenus), HEK293 (SSTR2 mutants); conditions: for Fold of WT: Bystander BRET EC50;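 as to all read-outs here: Read-out is the BRET ratio between Nluc-fused β-arrestin 1 and the early endosome marker FYVE-mVenus, measured after ligand addition with coelenterazine h as substrate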
Method: (§1) Wild-type or mutant SSTR2, β-arrestin 1-Nluc and FYVE-mVenus were co-transfected in HEK293 cells at a ratio of 1:0.5:4 on six-well plates. The next day, the transfected cells were plated on white 96-well and incubated overnight, and then cells were incubated with 90 µL HBSS containing 20 mM HEPES and coelenterazine h (5 µM) at room temperature for 40 min. After incubation, ligand was added and the signal was measured using the Synergy H1 microplate reader (BioTek) to determine a BRET ratio.

[2] = target: SSTR2 mutants (Homo sapiens, UniProt P30874, K291A); test: as above; conditions: for Bottom: best-fit value
Method: as §1

[3] = target: SSTR2 mutants (Homo sapiens, UniProt P30874, Y312A); test: as above
Method: as §1

[4] = target: SSTR2 mutants (Homo sapiens, UniProt P30874, F265A); test: as above
Method: as §1

[5] = target: SSTR2 mutants (Homo sapiens, UniProt P30874, I130A); test: as above
Method: as §1

[6] = target: SSTR2 mutants (Homo sapiens, UniProt P30874, I284A); test: as above; conditions: for Bottom: best-fit value
Method: as §1

[7] = target: SSTR2 mutants (Homo sapiens, UniProt P30874, P220A); test: as above
Method: as §1

[8] = target: SSTR2 mutants (Homo sapiens, UniProt P30874, W269A); test: as above
Method: as §1

[9] = target: SSTR2 mutants (Homo sapiens, UniProt P30874, R140A); test: as above
Method: as §1

[10] = test system: GH3 cells; test: Cell apoptosis assay, Annexin V-FITC/PI flow cytometry, GH3 cells overexpressing SSTR2, 48 h; assay type: cell-based, rat
Method: The rat pituitary GH3 cells (ATCC, CCL-82.1) were seeded in 12-well plates at 1.5 × 10^5/well. […] Then, the cells were collected for the apoptosis assay according to the instruction of the Annexin V-FITC/PI apoptosis detection kit (BD Biosciences). Briefly, the cells were washed with cold PBS and resuspended in 1 × binding buffer. Then, 5 μl of Annexin V-FITC was added and incubated for 10 min and stained with 5 μl of PI for 5 min in the dark at room temperature. All samples were acquired by a Novocyte flow cytometer (ACEA Biosciences, China), and data were analyzed with NovoExpress^TM software.

[11] = best-fit value, F265A-1 (run 1)
[12] = best-fit value, F265A-2 (run 2)
[13] = best-fit value, F265A-3 (run 3)
[14] = best-fit value, F294A-1 (run 1)
[15] = best-fit value, F294A-2 (run 2)
[16] = best-fit value, F294A-3 (run 3)
[17] = best-fit value, I284A-1 (run 1)
[18] = best-fit value, I284A-2 (run 2)
[19] = best-fit value, I284A-3 (run 3)
[20] = best-fit value, K291A-1 (run 1)
[21] = best-fit value, K291A-2 (run 2)
[22] = best-fit value, K291A-3 (run 3)
[23] = best-fit value, N276A-1 (run 1)
[24] = best-fit value, N276A-2 (run 2)
[25] = best-fit value, N276A-3 (run 3)

Sequence of SSTR2 mutants (Homo sapiens, UniProt P30874, P220A) (P30874 whole entry P220A): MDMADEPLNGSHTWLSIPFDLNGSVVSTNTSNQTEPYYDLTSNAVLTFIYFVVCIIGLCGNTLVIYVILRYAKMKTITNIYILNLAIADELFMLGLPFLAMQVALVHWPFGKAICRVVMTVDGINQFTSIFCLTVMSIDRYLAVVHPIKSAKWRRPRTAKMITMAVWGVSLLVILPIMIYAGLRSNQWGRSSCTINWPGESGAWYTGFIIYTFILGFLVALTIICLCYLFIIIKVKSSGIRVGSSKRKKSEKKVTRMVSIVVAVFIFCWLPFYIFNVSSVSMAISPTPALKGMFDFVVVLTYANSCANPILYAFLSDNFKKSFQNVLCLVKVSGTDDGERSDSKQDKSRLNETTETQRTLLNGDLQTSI
Sequence of SSTR2 mutants (Homo sapiens, UniProt P30874, I130A) (P30874 whole entry I130A): as the sequence (P30874 whole entry P220A) above, with I130A, A220P counted along it
Sequence of SSTR2 mutants (Homo sapiens, UniProt P30874, F265A) (P30874 whole entry F265A): as the sequence (P30874 whole entry P220A) above, with A220P, F265A counted along it
Sequence of SSTR2 mutants (Homo sapiens, UniProt P30874, Y312A) (P30874 whole entry Y312A): as the sequence (P30874 whole entry P220A) above, with A220P, Y312A counted along it
Sequence of SSTR2 mutants (Homo sapiens, UniProt P30874, K291A) (P30874 whole entry K291A): as the sequence (P30874 whole entry P220A) above, with A220P, K291A counted along it
Sequence of SSTR2 mutants (Homo sapiens, UniProt P30874, R140A) (P30874 whole entry R140A): as the sequence (P30874 whole entry P220A) above, with R140A, A220P counted along it
Sequence of SSTR2 mutants (Homo sapiens, UniProt P30874, I284A) (P30874 whole entry I284A): as the sequence (P30874 whole entry P220A) above, with A220P, I284A counted along it
Sequence of SSTR2 mutants (Homo sapiens, UniProt P30874, W269A) (P30874 whole entry W269A): as the sequence (P30874 whole entry P220A) above, with A220P, W269A counted along it

N#Cc1cccc(-c2ccc3ncc(-c4cc(F)cc(F)c4)c(N4CCC(N)CC4)c3c2)c1O [paltusotine]
Fold of WT ([1]; SSTR2 F294(7.35)A): 17.12
Fold of WT ([1]; SSTR2 I284ECL3A): 0.73
Fold of WT ([1]; SSTR2 K291(7.32)A): 0.73
Fold of WT ([1]; SSTR2 N276(6.55)A): 1.19
Fold of WT ([1]; SSTR2 W269(6.48)A): 1.06
LogEC50 (best-fit) ([1]; I130A-1 (run 1)): ~ -2.099
Span (best-fit) ([1]; I130A-1 (run 1)): ~ 8554
Top (best-fit) ([1]; I130A-1 (run 1)): ~ 8552
LogEC50 (best-fit) ([1]; I130A-2 (run 2)): -9.856
Span (best-fit) ([1]; I130A-2 (run 2)): -10.4
Top (best-fit) ([1]; I130A-2 (run 2)): -9.472
LogEC50 (best-fit) ([1]; I130A-3 (run 3)): -9.469
Span (best-fit) ([1]; I130A-3 (run 3)): 2.038
Top (best-fit) ([1]; I130A-3 (run 3)): -0.7545
LogEC50 (best-fit) ([1]; P220A-1 (run 1)): -6.735
Span (best-fit) ([1]; P220A-1 (run 1)): 12.69
Top (best-fit) ([1]; P220A-1 (run 1)): 13.21
LogEC50 (best-fit) ([1]; P220A-2 (run 2)): ~ -2.138
Span (best-fit) ([1]; P220A-2 (run 2)): ~ 22554
Top (best-fit) ([1]; P220A-2 (run 2)): ~ 22557
LogEC50 (best-fit) ([1]; P220A-3 (run 3)): -6.08
Span (best-fit) ([1]; P220A-3 (run 3)): 20.28
Top (best-fit) ([1]; P220A-3 (run 3)): 17.78
LogEC50 (best-fit) ([1]; R140A-1 (run 1)): -8.331
Span (best-fit) ([1]; R140A-1 (run 1)): 51.38
Top (best-fit) ([1]; R140A-1 (run 1)): 50.75
LogEC50 (best-fit) ([1]; R140A-2 (run 2)): -8.178
Span (best-fit) ([1]; R140A-2 (run 2)): 55.99
Top (best-fit) ([1]; R140A-2 (run 2)): 44.7
LogEC50 (best-fit) ([1]; R140A-3 (run 3)): -8.181
Span (best-fit) ([1]; R140A-3 (run 3)): 61.6
Top (best-fit) ([1]; R140A-3 (run 3)): 61.78
LogEC50 (best-fit) ([1]; W269A-1 (run 1)): -6.886
Span (best-fit) ([1]; W269A-1 (run 1)): 28.05
Top (best-fit) ([1]; W269A-1 (run 1)): 27.2
LogEC50 (best-fit) ([1]; W269A-2 (run 2)): -6.322
Span (best-fit) ([1]; W269A-2 (run 2)): 26.76
Top (best-fit) ([1]; W269A-2 (run 2)): 23
LogEC50 (best-fit) ([1]; W269A-3 (run 3)): -6.81
Span (best-fit) ([1]; W269A-3 (run 3)): 22.83
Top (best-fit) ([1]; W269A-3 (run 3)): 22.91
LogEC50 (best-fit) ([1]; Y312A-1 (run 1)): -8.087
Span (best-fit) ([1]; Y312A-1 (run 1)): 42.16
Top (best-fit) ([1]; Y312A-1 (run 1)): 41.34
LogEC50 (best-fit) ([1]; Y312A-2 (run 2)): -7.939
Span (best-fit) ([1]; Y312A-2 (run 2)): 49.41
Top (best-fit) ([1]; Y312A-2 (run 2)): 47.36
LogEC50 (best-fit) ([1]; Y312A-3 (run 3)): -8.193
Span (best-fit) ([1]; Y312A-3 (run 3)): 41.16
Top (best-fit) ([1]; Y312A-3 (run 3)): 41.43
Internalization of microswitch mutants ([1]; alanine substitution of microswitch residues): reduced receptor internalization
EC50 [1, 11]: 11.9 µM
LogEC50 [1, 11]: -4.926
Span [1, 11]: 10.7
Top [1, 11]: 10.68
LogEC50 [1, 12]: -7.219
Span [1, 12]: 0.6462
Top [1, 12]: -7.332
EC50 [1, 13]: 14.7 µM
LogEC50 [1, 13]: -4.832
Span [1, 13]: 19.35
Top [1, 13]: 19.15
EC50 [1, 14]: 2.09 µM
LogEC50 [1, 14]: -5.679
Span [1, 14]: 94.38
Top [1, 14]: 95.1
EC50 [1, 15]: 1.28 µM
LogEC50 [1, 15]: -5.892
Span [1, 15]: 84.17
Top [1, 15]: 81.83
EC50 [1, 16]: 1.57 µM
LogEC50 [1, 16]: -5.803
Span [1, 16]: 87.18
Top [1, 16]: 86.4
EC50 [1, 17]: 0.0712 µM
LogEC50 [1, 17]: -7.148
Span [1, 17]: 95.18
Top [1, 17]: 94.55
EC50 [1, 18]: 0.0841 µM
LogEC50 [1, 18]: -7.075
Span [1, 18]: 103.8
Top [1, 18]: 105.1
EC50 [1, 19]: 0.0826 µM
LogEC50 [1, 19]: -7.083
Span [1, 19]: 102.7
Top [1, 19]: 102.8
EC50 [1, 20]: 0.0357 µM
LogEC50 [1, 20]: -7.448
Span [1, 20]: 68.73
Top [1, 20]: 69.72
EC50 [1, 21]: 0.0839 µM
LogEC50 [1, 21]: -7.076
Span [1, 21]: 87.08
Top [1, 21]: 83.73
EC50 [1, 22]: 0.0302 µM
LogEC50 [1, 22]: -7.52
Span [1, 22]: 76.1
Top [1, 22]: 71.42
EC50 [1, 23]: 0.14 µM
LogEC50 [1, 23]: -6.855
Span [1, 23]: 79.71
Top [1, 23]: 79.77
EC50 [1, 24]: 0.11 µM
LogEC50 [1, 24]: -6.96
Span [1, 24]: 78.62
Top [1, 24]: 78.47
EC50 [1, 25]: 0.1 µM
LogEC50 [1, 25]: -7
Span [1, 25]: 73.41
Top [1, 25]: 70.97
EC50 ([1]; read-out: EC50 (best-fit), I130A-1 (run 1)): ~7970 µM
EC50 ([1]; read-out: EC50 (best-fit), I130A-2 (run 2)): 0.000139 µM
EC50 ([1]; read-out: EC50 (best-fit), I130A-3 (run 3)): 0.00034 µM
EC50 ([1]; read-out: EC50 (best-fit), P220A-1 (run 1)): 0.184 µM
EC50 ([1]; read-out: EC50 (best-fit), P220A-2 (run 2)): ~7280 µM
EC50 ([1]; read-out: EC50 (best-fit), P220A-3 (run 3)): 0.831 µM
EC50 ([1]; read-out: EC50 (best-fit), R140A-1 (run 1)): 0.00467 µM
EC50 ([1]; read-out: EC50 (best-fit), R140A-2 (run 2)): 0.00664 µM
EC50 ([1]; read-out: EC50 (best-fit), R140A-3 (run 3)): 0.00659 µM
EC50 ([1]; read-out: EC50 (best-fit), W269A-1 (run 1)): 0.13 µM
EC50 ([1]; read-out: EC50 (best-fit), W269A-2 (run 2)): 0.476 µM
EC50 ([1]; read-out: EC50 (best-fit), W269A-3 (run 3)): 0.155 µM
EC50 ([1]; read-out: EC50 (best-fit), Y312A-1 (run 1)): 0.00818 µM
EC50 ([1]; read-out: EC50 (best-fit), Y312A-2 (run 2)): 0.0115 µM
EC50 ([1]; read-out: EC50 (best-fit), Y312A-3 (run 3)): 0.00641 µM
EC50 [2]: 0.0894 ± 0.00133 µM
Emax ([2]; HEK293): 86.8 ± 5.01%
Bottom ([2]; K291A-1 (run 1)): 0.9895
Bottom ([2]; K291A-2 (run 2)): -3.341
Bottom ([2]; K291A-3 (run 3)): -4.686
Bottom (best-fit) ([3]; Y312A-1 (run 1)): -0.8168
Bottom (best-fit) ([3]; Y312A-2 (run 2)): -2.056
Bottom (best-fit) ([3]; Y312A-3 (run 3)): 0.2687
Bottom (best-fit) ([4]; F265A-1 (run 1)): -0.01693
Bottom (best-fit) ([4]; F265A-2 (run 2)): -7.978
Bottom (best-fit) ([4]; F265A-3 (run 3)): -0.1955
Bottom (best-fit) ([5]; I130A-1 (run 1)): -1.998
Bottom (best-fit) ([5]; I130A-2 (run 2)): 0.9306
Bottom (best-fit) ([5]; I130A-3 (run 3)): -2.793
EC50 [6]: 0.0898 ± 0.00128 µM
Emax ([6]; HEK293): 106 ± 6.25%
Bottom ([6]; I284A-1 (run 1)): -0.6254
Bottom ([6]; I284A-2 (run 2)): 1.24
Bottom ([6]; I284A-3 (run 3)): 0.1294
Bottom (best-fit) ([7]; P220A-1 (run 1)): 0.5179
Bottom (best-fit) ([7]; P220A-2 (run 2)): 2.929
Bottom (best-fit) ([7]; P220A-3 (run 3)): -2.504
EC50 [8]: 0.13 ± 0.00165 µM
Emax ([8]; HEK293): 27.2 ± 2.61%
Bottom (best-fit) ([8]; W269A-1 (run 1)): -0.847
Bottom (best-fit) ([8]; W269A-2 (run 2)): -3.759
Bottom (best-fit) ([8]; W269A-3 (run 3)): 0.08484
Bottom (best-fit) ([9]; R140A-1 (run 1)): -0.6263
Bottom (best-fit) ([9]; R140A-2 (run 2)): -11.29
Bottom (best-fit) ([9]; R140A-3 (run 3)): 0.1772
Apoptotic rate versus octreotide [10]: increased apoptotic rate
Proapoptotic activity [10]: able to activate proapoptotic pathways
